Experiments:
Assay in all cases: Weeding effect in post-emergence stage
Format in all cases: in vivo
[1] = test system: Echinochloa crusgalli; conditions: for Weeding effect in post-emergence stage, Echinochloa crusgalli: level of fresh weight growth control rate; for Weeding effect in post-emergence stage, Echinochloa crusgalli (level): fresh weight control rate level
How it was run: (§1)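 Compound, dissolved in acetone and diluted in water with Tween 80 plus methyl oleate EC (1.5 liter/ha), is sprayed onto 2-3 leaf potted plants. Rates span 7.5–500 g/ha. After 3 weeks of greenhouse culture, weeding effect is counted as the mean of triplicates.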

[2] = test system: Setaria viridis; conditions: for Weeding effect in post-emergence stage, Setaria viridis: level of fresh weight growth control rate; for Weeding effect in post-emergence stage, Setaria viridis (level): fresh weight control rate level
How it was run: as §1

[3] = test system: Abutilon theophrasti; conditions: for Weeding effect in post-emergence stage, Abutilon theophrasti: level of fresh weight growth control rate; for Weeding effect in post-emergence stage, Abutilon theophrasti (level): fresh weight control rate level
How it was run: as §1

[4] = test system: Eleusine indica; conditions: for Weeding effect in post-emergence stage, Eleusine indica: level of fresh weight growth control rate; for Weeding effect in post-emergence stage, Eleusine indica (level): fresh weight control rate level
How it was run: as §1

[5] = test system: Digitaria sanguinalis; conditions: for Weeding effect in post-emergence stage, Digitaria sanguinalis: level of fresh weight growth control rate; for Weeding effect in post-emergence stage, Digitaria sanguinalis (level): fresh weight control rate level
How it was run: as §1

[6] = test system: Alopecurus japonicus; conditions: for Weeding effect in post-emergence stage, Alopecurus japonicus: level of fresh weight growth control rate; for Weeding effect in post-emergence stage, Alopecurus japonicus (level): fresh weight control rate level
How it was run: as §1

Row | Compound | Weeding effect in post-emergence stage, Echinochloa crusgalli ([1]; Dose 15 g/ha) | Weeding effect in post-emergence stage, Setaria viridis ([2]; Dose 15 g/ha) | Weeding effect in post-emergence stage, Abutilon theophrasti ([3]; Dose 15 g/ha) | Weeding effect in post-emergence stage, Eleusine indica ([4]; Dose 15 g/ha) | Weeding effect in post-emergence stage, Digitaria sanguinalis ([5]; Dose 15 g/ha) | Weeding effect in post-emergence stage, Alopecurus japonicus ([6]; Dose 15 g/ha) | further results
1 | C[C@@H](O/N=C/c1cc(-n2c(=O)n(C)c(=S)n(C)c2=O)c(F)cc1Cl)C(=O)OCC1CC1 [9(R)] | 5 (Level 5: growth control rate is above 85%) | 5 (Level 5: growth control rate is above 85%) | 5 (Level 5: growth control rate is above 85%) | 5 (Level 5: growth control rate is above 85%) | 5 (Level 5: growth control rate is above 85%) | 5 (Level 5: growth control rate is above 85%) | –
2 | CCCOC(=O)C(C)O/N=C/c1cc(-n2c(=O)cc(C(F)(F)F)n(C)c2=O)c(F)cc1Cl (racemic) [Compound 198] | 5 (Level 5: growth control rate is above 85%) | 5 (Level 5: growth control rate is above 85%) | 5 (Level 5: growth control rate is above 85%) | 5 (Level 5: growth control rate is above 85%) | 5 (Level 5: growth control rate is above 85%) | 5 (Level 5: growth control rate is above 85%) | –
3 | CCO[C@H](O/N=C/c1cc(-n2c(=O)cc(C(F)(F)F)n(C)c2=O)c(F)cc1Cl)C(=O)OC [331(R)] | 5 (Level 5: growth control rate is above 85%) | 5 (Level 5: growth control rate is above 85%) | 5 (Level 5: growth control rate is above 85%) | 5 (Level 5: growth control rate is above 85%) | 5 (Level 5: growth control rate is above 85%) | 5 (Level 5: growth control rate is above 85%) | –
4 | C[C@@H](O/N=C/c1cc(-n2c(=O)cc(C(F)(F)F)n(C)c2=O)c(F)cc1Cl)C(=O)OC/C=C/Cl [225(R)] | 5 (Level 5: growth control rate is above 85%) | 5 (Level 5: growth control rate is above 85%) | 5 (Level 5: growth control rate is above 85%) | 5 (Level 5: growth control rate is above 85%) | 5 (Level 5: growth control rate is above 85%) | 5 (Level 5: growth control rate is above 85%) | –
5 | C[C@@H](O/N=C/c1cc(-n2c(=O)cc(C(F)(F)F)n(C)c2=O)c(F)cc1Cl)C(=O)OC(C)(C)C [202(R)] | 5 (Level 5: growth control rate is above 85%) | 5 (Level 5: growth control rate is above 85%) | 5 (Level 5: growth control rate is above 85%) | 5 (Level 5: growth control rate is above 85%) | 5 (Level 5: growth control rate is above 85%) | 5 (Level 5: growth control rate is above 85%) | –
6 | CCOC(=O)C(F)O/N=C/c1cc(-n2c(=O)cc(C(F)(F)F)n(C)c2=O)c(F)cc1Cl (stereo not drawn) [Compound 313] | 5 (Level 5: growth control rate is above 85%) | 5 (Level 5: growth control rate is above 85%) | 5 (Level 5: growth control rate is above 85%) | 5 (Level 5: growth control rate is above 85%) | 5 (Level 5: growth control rate is above 85%) | 5 (Level 5: growth control rate is above 85%) | –
7 | CCCSC(=O)[C@@H](C)O/N=C/c1cc(-n2c(=O)cc(C(F)(F)F)n(C)c2=O)c(F)cc1Cl [399(R)] | – | – | – | – | – | – | Weeding effect in post-emergence stage, Echinochloa crusgalli (level) ([1]; Dose 15 g/ha): 5 (Level 5: growth control rate is above 85%); Weeding effect in post-emergence stage, Setaria viridis (level) ([2]; Dose 15 g/ha): 5 (Level 5: growth control rate is above 85%); Weeding effect in post-emergence stage, Abutilon theophrasti (level) ([3]; Dose 15 g/ha): 5 (Level 5: growth control rate is above 85%); Weeding effect in post-emergence stage, Eleusine indica (level) ([4]; Dose 15 g/ha): 5 (Level 5: growth control rate is above 85%); Weeding effect in post-emergence stage, Digitaria sanguinalis (level) ([5]; Dose 15 g/ha): 5 (Level 5: growth control rate is above 85%); Weeding effect in post-emergence stage, Alopecurus japonicus (level) ([6]; Dose 15 g/ha): 5 (Level 5: growth control rate is above 85%)
8 | CC(C)COC(=O)[C@@H](C)O/N=C/c1cc(-n2c(=O)cc(C(F)(F)F)n(C)c2=O)c(F)cc1Cl [201(R)] | 5 (Level 5: growth control rate is above 85%) | 5 (Level 5: growth control rate is above 85%) | 5 (Level 5: growth control rate is above 85%) | 5 (Level 5: growth control rate is above 85%) | 5 (Level 5: growth control rate is above 85%) | 5 (Level 5: growth control rate is above 85%) | –
9 | C[C@@H](O/N=C/c1cc(-n2c(=O)cc(C(F)(F)F)n(C)c2=O)c(F)cc1Cl)C(=O)N1CCOCC1 [454(R)] | – | – | – | – | – | – | Weeding effect in post-emergence stage, Echinochloa crusgalli (level) ([1]; Dose 60 g/ha): 5 (Level 5: growth control rate is above 85%); Weeding effect in post-emergence stage, Setaria viridis (level) ([2]; Dose 60 g/ha): 5 (Level 5: growth control rate is above 85%); Weeding effect in post-emergence stage, Abutilon theophrasti (level) ([3]; Dose 60 g/ha): 5 (Level 5: growth control rate is above 85%); Weeding effect in post-emergence stage, Eleusine indica (level) ([4]; Dose 60 g/ha): 5 (Level 5: growth control rate is above 85%); Weeding effect in post-emergence stage, Digitaria sanguinalis (level) ([5]; Dose 60 g/ha): 5 (Level 5: growth control rate is above 85%); Weeding effect in post-emergence stage, Alopecurus japonicus (level) ([6]; Dose 60 g/ha): 5 (Level 5: growth control rate is above 85%)
10 | CCN(CC)C(=O)[C@@H](C)O/N=C/c1cc(-n2c(=O)cc(C(F)(F)F)n(C)c2=O)c(F)cc1Cl [502(R)] | – | – | – | – | – | – | Weeding effect in post-emergence stage, Echinochloa crusgalli (level) ([1]; Dose 15 g/ha): 5 (Level 5: growth control rate is above 85%); Weeding effect in post-emergence stage, Setaria viridis (level) ([2]; Dose 15 g/ha): 5 (Level 5: growth control rate is above 85%); Weeding effect in post-emergence stage, Abutilon theophrasti (level) ([3]; Dose 15 g/ha): 5 (Level 5: growth control rate is above 85%); Weeding effect in post-emergence stage, Eleusine indica (level) ([4]; Dose 15 g/ha): 5 (Level 5: growth control rate is above 85%); Weeding effect in post-emergence stage, Digitaria sanguinalis (level) ([5]; Dose 15 g/ha): 5 (Level 5: growth control rate is above 85%); Weeding effect in post-emergence stage, Alopecurus japonicus (level) ([6]; Dose 15 g/ha): 5 (Level 5: growth control rate is above 85%)
11 | COC(=O)[C@H](O/N=C/c1cc(-n2c(=O)cc(C(F)(F)F)n(C)c2=O)c(F)cc1Cl)c1ccccc1 [337(R)] | 5 (Level 5: growth control rate is above 85%) | 5 (Level 5: growth control rate is above 85%) | 5 (Level 5: growth control rate is above 85%) | 5 (Level 5: growth control rate is above 85%) | 5 (Level 5: growth control rate is above 85%) | 5 (Level 5: growth control rate is above 85%) | –

— patent US20230111310A1, “CARBOXYLIC ACID DERIVATIVE-SUBSTITUTED IMINO ARYL COMPOUND, PREPARATION METHOD THEREFOR, HERBICIDAL COMPOSITION AND USE THEREOF” (Qingdao Kingagroot Chemical Compound Co., Ltd., priority 2020, published 2023)
